Data reported in patent US20050070510A1, “Substituted tetracycline compounds as synergistic antifungal agents” (Paratek Pharmaceuticals, Inc., priority 2001, published 2005).

Each compound was assayed on COS-1 cells (assay: In vitro mammalian cytotoxicity assay (Resazurin)).
For `COc1cc(C/C=C\c2ccc(O)c3c2C[C@@]2(N)C[C@@]4(N)[C@H](N(C)C)C(O)=C(C(N)=O)C(=O)[C@@]4(C#N)C(O)=C2C3=O)ccc1O` [HW], the “In Vitro Cytotoxicity” value was “** (toxicities less than 25 μg/mL are represented by **)”.
With `CN(C)[C@@H]1C(O)=C(C(N)=O)C(=O)[C@@]2(C#N)C(O)=C3C(=O)c4c(cc(Br)c(N)c4O)[C@H](N)[C@@]3(N)[C@H](O)[C@@]12N` [HY] the “In Vitro Cytotoxicity” value was “* (toxicities greater than >25 μg/ml are represented by *)”.
`CN(C)c1cc(C#CC(=O)O)c(O)c2c1C[C@@]1(N)C[C@@]3(N)[C@H](N(C)C)C(O)=C(C(N)=O)C(=O)[C@@]3(C#N)C(O)=C1C2=O` [HZ] was tested, and the “In Vitro Cytotoxicity” value was “* (toxicities greater than >25 μg/ml are represented by *)”.
`CN(C)c1cc(NC(=O)Nc2cccc3ccccc23)c(O)c2c1C[C@@]1(N)C[C@@]3(N)[C@H](N(C)C)C(O)=C(C(N)=O)C(=O)[C@@]3(C#N)C(O)=C1C2=O` [IA] was tested, and the “In Vitro Cytotoxicity” value was “* (toxicities greater than >25 μg/ml are represented by *)”.
With `CN(C)c1cc(NC(=O)Nc2ccccc2)c(O)c2c1C[C@@]1(N)C[C@@]3(N)[C@H](N(C)C)C(O)=C(C(N)=O)C(=O)[C@@]3(C#N)C(O)=C1C2=O` [IB] the “In Vitro Cytotoxicity” value was “* (toxicities greater than >25 μg/ml are represented by *)”.
With `CN(C)c1cc(NC(=O)Nc2ccc([N+](=O)O)cc2)c(O)c2c1C[C@@]1(N)C[C@@]3(N)[C@H](N(C)C)C(O)=C(C(N)=O)C(=O)[C@@]3(C#N)C(O)=C1C2=O` [IC] the “In Vitro Cytotoxicity” value was “* (toxicities greater than >25 μg/ml are represented by *)”.
`CN(C)[C@@H]1C(O)=C(C(N)=O)C(=O)[C@@]2(C#N)C(O)=C3C(=O)c4c(O)c(C(C)(C)C)cc(CCC(=O)c5cccnc5)c4C[C@@]3(N)C[C@@]12N` [ID] was tested, and the “In Vitro Cytotoxicity” value was “* (toxicities greater than >25 μg/ml are represented by *)”.
For `COc1ccc(NC(=O)Nc2cc(N(C)C)c3c(c2O)C(=O)C2=C(O)[C@]4(C#N)C(=O)C(C(N)=O)=C(O)[C@@H](N(C)C)[C@]4(N)C[C@]2(N)C3)cc1` [IE], the “In Vitro Cytotoxicity” value was “* (toxicities greater than >25 μg/ml are represented by *)”.
For `CCCCC#Cc1ccc(O)c2c1C[C@@]1(N)C[C@@]3(N)[C@H](N(C)C)C(O)=C(C(N)=O)C(=O)[C@@]3(C#N)C(O)=C1C2=O` [IG], the “In Vitro Cytotoxicity” value was “** (toxicities less than 25 μg/mL are represented by **)”.
For `CCCC/C(Cl)=C/c1ccc(O)c2c1C[C@@]1(N)C[C@@]3(N)[C@H](N(C)C)C(O)=C(C(N)=O)C(=O)[C@@]3(C#N)C(O)=C1C2=O` [IH], the “In Vitro Cytotoxicity” value was “** (toxicities less than 25 μg/mL are represented by **)”.
`CN(C)Cc1ccc(-c2cc(N(C)C)c3c(c2O)C(=O)C2=C(O)[C@]4(C#N)C(=O)C(C(N)=O)=C(O)[C@@H](N(C)C)[C@]4(N)C[C@]2(N)C3)cc1` [IJ] was tested, and the “In Vitro Cytotoxicity” value was “* (toxicities greater than >25 μg/ml are represented by *)”.
In the case of `CN(C)c1cc(NC(=O)NC(=O)c2ccccc2)c(O)c2c1C[C@@]1(N)C[C@@]3(N)[C@H](N(C)C)C(O)=C(C(N)=O)C(=O)[C@@]3(C#N)C(O)=C1C2=O` [IK], the “In Vitro Cytotoxicity” value is reported as “* (toxicities greater than >25 μg/ml are represented by *)”.
With `CN(C)c1cc(NC(=O)Nc2cc(C(F)(F)F)cc(C(F)(F)F)c2)c(O)c2c1C[C@@]1(N)C[C@@]3(N)[C@H](N(C)C)C(O)=C(C(N)=O)C(=O)[C@@]3(C#N)C(O)=C1C2=O` [IL] the “In Vitro Cytotoxicity” value was “** (toxicities less than 25 μg/mL are represented by **)”.
`COc1ccc(CN(C)C)cc1-c1ccc(O)c2c1C[C@@]1(N)C[C@@]3(N)[C@H](N(C)C)C(O)=C(C(N)=O)C(=O)[C@@]3(C#N)C(O)=C1C2=O` [IM] was tested, and the “In Vitro Cytotoxicity” value was “* (toxicities greater than >25 μg/ml are represented by *)”.
For `CN(C)[C@@H]1C(O)=C(C(N)=O)C(=O)[C@@]2(C#N)C(O)=C3C(=O)c4c(O)ccc(CCc5ccccc5)c4C[C@@]3(N)C[C@@]12N` [IN], the “In Vitro Cytotoxicity” value was “** (toxicities less than 25 μg/mL are represented by **)”.
`CN(C)c1cc(C#CCNS(C)(=O)=O)c(O)c2c1C[C@@]1(N)C[C@@]3(N)[C@H](N(C)C)C(O)=C(C(N)=O)C(=O)[C@@]3(C#N)C(O)=C1C2=O` [IP] was tested, and the “In Vitro Cytotoxicity” value was “* (toxicities greater than >25 μg/ml are represented by *)”.
For `CN(C)[C@@H]1C(O)=C(C(N)=O)C(=O)[C@@]2(C#N)C(O)=C3C(=O)c4c(O)ccc(C#CCNS(C)(=O)=O)c4C[C@@]3(N)C[C@@]12N` [IQ], the “In Vitro Cytotoxicity” value was “* (toxicities greater than >25 μg/ml are represented by *)”.
In the case of `CCc1cc(F)c(O)c2c1C[C@@]1(N)C[C@@]3(N)[C@H](N(C)C)C(O)=C(C(N)=O)C(=O)[C@@]3(C#N)C(O)=C1C2=O` [IR], the “In Vitro Cytotoxicity” value is reported as “** (toxicities less than 25 μg/mL are represented by **)”.
With `CN(C)[C@@H]1C(O)=C(C(N)=O)C(=O)[C@@]2(C#N)C(O)=C3C(=O)c4c(O)ccc(-c5cccc(C(N)=O)c5)c4C[C@@]3(N)C[C@@]12N` [IS] the “In Vitro Cytotoxicity” value was “* (toxicities greater than >25 μg/ml are represented by *)”.
With `CC(=O)Nc1ccc(C#Cc2ccc(O)c3c2C[C@@]2(N)C[C@@]4(N)[C@H](N(C)C)C(O)=C(C(N)=O)C(=O)[C@@]4(C#N)C(O)=C2C3=O)cc1` [IU] the “In Vitro Cytotoxicity” value was “* (toxicities greater than >25 μg/ml are represented by *)”.
With `CN(C)[C@@H]1C(O)=C(C(N)=O)C(=O)[C@@]2(C#N)C(O)=C3C(=O)c4c(O)ccc(CCCNS(C)(=O)=O)c4C[C@@]3(N)C[C@@]12N` [IV] the “In Vitro Cytotoxicity” value was “* (toxicities greater than >25 μg/ml are represented by *)”.
`CC(O)CCc1ccc(O)c2c1C[C@@]1(N)C[C@@]3(N)[C@H](N(C)C)C(O)=C(C(N)=O)C(=O)[C@@]3(C#N)C(O)=C1C2=O` (stereo partly drawn) [IW] was tested, and the “In Vitro Cytotoxicity” value was “* (toxicities greater than >25 μg/ml are represented by *)”.
`CN(C)[C@@H]1C(O)=C(C(N)=O)C(=O)[C@@]2(C#N)C(O)=C3C(=O)c4c(O)ccc(CCC5CCCCC5)c4C[C@@]3(N)C[C@@]12N` [IX] was tested, and the “In Vitro Cytotoxicity” value was “** (toxicities less than 25 μg/mL are represented by **)”.
`CCc1cc(CNC(=O)c2cccnc2)c(O)c2c1C[C@@]1(N)C[C@@]3(N)[C@H](N(C)C)C(O)=C(C(N)=O)C(=O)[C@@]3(C#N)C(O)=C1C2=O` [IY] was tested, and the “In Vitro Cytotoxicity” value was “* (toxicities greater than >25 μg/ml are represented by *)”.
`CCc1cc(CN)c(O)c2c1C[C@@]1(N)C[C@@]3(N)[C@H](N(C)C)C(O)=C(C(N)=O)C(=O)[C@@]3(C#N)C(O)=C1C2=O` [IZ] was tested, and the “In Vitro Cytotoxicity” value was “* (toxicities greater than >25 μg/ml are represented by *)”.
With `CN(C)[C@@H]1C(O)=C(C(N)=O)C(=O)[C@@]2(C#N)C(O)=C3C(=O)c4c(ccc(/C=C\C(=O)NC(C)(C)C)c4O)[C@H](N)[C@@]3(N)[C@H](O)[C@@]12N` [JA] the “In Vitro Cytotoxicity” value was “* (toxicities greater than >25 μg/ml are represented by *)”.
`CN(C)[C@@H]1C(O)=C(C(N)=O)C(=O)[C@@]2(C#N)C(O)=C3C(=O)c4c(O)ccc(C5CCCC5)c4C[C@@]3(N)C[C@@]12N` [JB] was tested, and the “In Vitro Cytotoxicity” value was “** (toxicities less than 25 μg/mL are represented by **)”.
For `CN(C)[C@@H]1C(O)=C(C(N)=O)C(=O)[C@@]2(C#N)C(O)=C3C(=O)c4c(O)c(CNC(=O)c5cccnc5)cc(CCC5CCCCC5)c4C[C@@]3(N)C[C@@]12N` [JC], the “In Vitro Cytotoxicity” value was “** (toxicities less than 25 μg/mL are represented by **)”.
With `CN(C)[C@@H]1C(O)=C(C(N)=O)C(=O)[C@@]2(C#N)C(O)=C3C(=O)c4c(O)ccc(/C=C/C(=O)OC(C)(C)C)c4C[C@@]3(N)C[C@@]12N` [JD] the “In Vitro Cytotoxicity” value was “* (toxicities greater than >25 μg/ml are represented by *)”.
With `CCCCCCc1ccc(O)c2c1C[C@@]1(N)C[C@@]3(N)[C@H](N(C)C)C(O)=C(C(N)=O)C(=O)[C@@]3(C#N)C(O)=C1C2=O` [JE] the “In Vitro Cytotoxicity” value was “** (toxicities less than 25 μg/mL are represented by **)”.
